Test results: US20100227827A1, “METHOD OF INCREASING TRYPTOPHAN AND NICOTINAMIDE LEVELS IN VIVO” (priority 2006, published 2010)
Where “and” joins values, the source holds several entries; their conditions need not be identical. Identical values can stand only once. Counter-ions that a name gives are not always drawn. Marks after values point to notes of the source that are not given here.

Key:
[1] = oral human dose 100 mg/kg (50-200 mg/kg); Smith 1982; cited from earlier work
[2] = Molar ratio from neutralization of free organic acid with hydroxides; format: physicochemical; conditions: salt or chelate
Procedure: Determination of salts and chelates of some naturally occurring polyhydroxylated and polycarboxylated organic acids are provided in Table 1. Experimental molar ratios were calculated from neutralization to pH=7.5 of free protonated organic acid (H^+) with sodium, potassium or ammonium hydroxides.

[3] = system: indolediamine oxygenase (IDO); assay: IDO activity from tryptophan/kynurenine molar ratio in serum (HPLC); conditions: quinic acid supplementation in vivo; tryptophan and kynurenine in serum
Procedure: Once tryptophan synthesis has been stimulated by the shikimate pathway, it is then further modified by catabolic metabolism via indolediamine oxygenase (IDO) first to kynurenine and/or hydroxtryptophan-serotonin and/or to quinoline-dopamine or to nicotinamde-NAD (energy). The inhibition of IDO activity by quinic acid exposure in vivo favors reduction in immunosuppressive activity. IDO activity was calculated by determining the molar ratios of tryptophan to kynurenine in 200 ul aliquots of 2 M TCA-precipitated serum by high pressure liquid chromatograph (HPLC). The HPLC method has already been published in all its details except the instrument was a HP 1100 series and the column was a XTERRA MSC18 ([…], 4.6 mm×50 mm) (Laich, A, Neurauter, […], Fuchs, D. More rapid method for simultaneous measurement of tryptophan and kyurenine by HPLC. Clinical Chemistry 48 (3): 579-580, 2002). The effect of quinic acid was further characterized on the end products of the shikimate pathway. Accordingly, quinic acid supplementation was analyzed against IDO activity through simultaneous detection of tryptophan and kynurenine. […]

[4] = Mouse 21 day drinking water study, plasma/serum HPLC; format: in vivo, C57BL/6 female mice; conditions: mice
Procedure: […] The animals were sacrificed, spleens removed and blood collected. The cell samples were analyzed in a […] Corporation, Kobe, Japan) and plasma/serum samples prepared for chemical analysis by HPLC for quinic acid and tryptophan.

spleen cells = assay: Mouse 21 day drinking water study, spleen cell count; format: in vivo, C57BL/6 female mice; conditions: mice, after day 21 intervention in drinking water; C-Med-100 4 mg/ml (500 mg/kg), quinic acid 2 mg/ml (250 mg/kg)
Procedure: C57BL/6 female mice were fed 4 mg/ml C-Med-100® or 2 mg/ml quinic acid dissolved in autoclaved tap water for 21 days. The animals were sacrificed, spleens removed and blood collected. The cell samples were analyzed in a […] Corporation, Kobe, Japan) and plasma/serum samples prepared for chemical analysis by HPLC for quinic acid and tryptophan.

[5] = Urinary quinic acid, hippuric acid, tryptophan and nicotinamide by HPLC; format: in vivo, human; conditions: over 9 months, Table 4 and text calculations
Procedure: Blood samples were collected by venal puncture using vacutainers (red top, 10 ml) usually in the morning (a.m.) after 12 hours of fasting. Serum was separated from the blood clot after setting 2 hr on the bench top before centrifugation for 10 min at 1500×g. Sera prepared in this manner were stored at +4° C. until biochemical analysis usually within 1-30 days of collection. Urine samples were collected as a random 50 ml sample in the A.M. during the treatment and follow-up (after treatment for 8 months) periods. Urine was spun at 5000×g for 15 min and the supernatant stored at +4° C. until analyzed within 1 month of collection. After the first analysis all samples were further stored at −20° C. and used for repeat determinations over time. Trial design for the clinical evaluation of Aqua Bimini™ (quinic acid ammonium chelate) was carried out at Lund University beginning Apr. 28, 2006. […] Repeat serum and urine samples were collected throughout the trial period and then pooled into groups for analysis as 6 weeks before (baseline), 4 weeks of intervention (treatment, 36 days) and 8 months dry-out (no treatment). Urine samples were mixed with 1:2:4 v/v/v of: aqueous urine:95% ethanol:ethyl acetate for 10 min with vigorous shaking. The ethyl acetate layer was allowed to separate with gravity at room temperature, and then it was removed with a pipette and evaporated with an air stream to dryness in a vacuum hood. In this manner 1-2 ml of urine were reconstituted in 0.2 ml water or ethanol which represented a 5-10 fold increase in concentration. […] The urine samples were diluted 1:2:4 v/v/v with ethanol and ethyl acetate, and then the ethyl acetate fraction dried, solubilized in 0.2 ml water and used for HPLC analyses with 20 μl injections directly onto a C18 80×4.6 mm. The mobile phase was 0.2% trifluoroacetic (TFA):methanol:acetonitrile (70:30):water in a ratio 8:8:84 (v/v/v). The UV detector was set at 215 nm, and quinic acid eluted with a retention of 0.97-1.05 min and nicotinamide at 2.6-2.9 min. The detection limit in urine was about 1.5 mg/ml for quinic acid and for nicotinamide it was 0.015 mg/ml. […] The urine samples were diluted 1:2:4 v/v/v with ethanol and ethyl acetate, and then the ethyl acetate fraction dried, solubilized in 0.2 ml water and used for HPLC analyses with 20 μl injections directly onto a C18 80×4.6 mm. The mobile phase was 70:30 v/v, 0.2% TFA: 30% methanol. The UV detector was set at 225 nm. Tryptophan eluted after 5.2-5.4 min and hippuric acid after 3.1-3.4 min.

[6] = Single high dose quinic acid time study, serum HPLC; format: in vivo; conditions: human
Procedure: Serum samples of 0.2 and 30 ml were collected from blood, and precipitated with either ethanol or trichloroacetic acid (TCA). After clean-up the supernatants were dried (ethanol precipitated) or used directly. A standard curve was prepared using quinic acid (Sigma) dissolved in distilled water and obeyed the equation y=6012.8x−24698; 20 μl injections of solutions between 0-25 mg/ml were used.
A apparently healthy volunteer drank 6 gm of quinic acid ammonium chelate (Quinmax™) dissolved in 300 ml water over a 15 min period, samples were collected, and then about 40 ml of peripheral blood (4-red topped vacutainers) were allowed to clot at room temperature to prepare serum samples by centrifugation. The serum sampling points were 0.7 hr, 1.7 hr, 2.7 hr, 3.7 hr, 10.5 hr 12.5 hr, hr, 28 hr and 44 hr. 30 ml serum samples were precipitated with 50% ethanol, taken to dryness under a stream of air, and redissolved in 1 ml of methanol for simultaneous HPLC analysis of quinic acid and hippuric acid. The data were reported as quinic acid present in 30 ml of serum. The column used for this experiment was a C18 150×4.6 mm. The mobile phase was 0.1% trifluoroacetic (TFA). The UV detector was set at 220 nm and quinic acid eluted with a retention of 2.26 min and hippuric acid at 8.3 min. Sensitivity of the method was about 1/30=0.033 mg quinic acid/ml serum.
A single high dose of 6000 mg was administered orally to a subject, and then 30 ml serum samples were prepared from whole blood samples taken from 0.7 to 44 hours after exposure. As serum samples were precipitated with ethanol and redissolved in 1 ml […], this allowed for a 30-fold increase in concentration of any quinic acid present in each blood sample, rendering the method extremely sensitive to even small amounts of quinic acid.

N[C@@H](Cc1c[nH]c2ccccc12)C(=O)O [Therapeutic tryptophan, tryptophan]
Urinary excretion daily sample, Tryptophan (avg) [1]: Tryptophan. = 1.3 mg/liter^c

O=C(O)[C@]1(O)C[C@@H](O)[C@@H](O)[C@H](O)C1 [Quinic acid potassium salt]
Determination of structure existing in water ([2]; potassium salt): chelate

O=C(O)[C@]1(O)C[C@@H](O)[C@@H](O)[C@H](O)C1 [quinic acid]
IDO activity [3]: inhibits IDO activity
In vivo plasma tryptophan mean ± s.d. ([4]; after day 21 intervention in drinking water, C-Med-100 4 mg/ml (500 mg/kg)): 79.4 ± 2.7^c μM
level of quinic acid, below HPLC detection ([4]; quinic acid 1 mg/ml in drinking water or about 500 mg/kg, 21 days): < 2000 µg/mL
In vivo spleen cells mean ± s.d. (spleen cells): 100 ± 10^c ×10^6
quinic acid dose excreted unmetabolized in the urine [5]: 40-60%
fraction of total dose taken up into the serum ([6]; in vivo): 0.073%
quinic acid found in systemic circulation ([6]; in vivo): < 0.1 % of the administered dose
quinic acid of total dose taken up into the serum ([6]; in vivo): 4.4 mg
quinic acid either excreted or metabolized ([6]; in vivo, 44 h): 99.9%
time of maximum uptake of quinic acid into serum ([6]; single oral dose 6000 mg): 10.5 h and 12.5 h

O=C(O)[C@]1(O)C[C@@H](O)[C@@H](O)[C@H](O)C1 [Quinic acid sodium salt]
Determination of structure existing in water ([2]; sodium salt): salt

N.N.N.O=C(O)CC(O)(C(=O)O)C(O)C(=O)O (centres unmarked) [Hydroxy citric acid ammonium salt]
Determination of structure existing in water [2]: Chelate
